Patent publication US7074789B2, “Kinase inhibitors” (Amgen Inc., priority 1999, dated 2006)

Tests used:
Format in all cases: biochemical
Lck = biological target: T1, Lck (Homo sapiens, UniProt P06239); assay: Kinase inhibition assay (33P transfer), Lck; settings: read-out: Lck-1
T1 construct: Kinases are expressed as either kinase domains or full length constructs; made in house
Summary of the method: (§1)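 Liquid scintillation counting of 33P on plate-bound synthetic substrates gives kinase activity. Plates are washed in 0.5% phosphoric acid first; kinases are tagged recombinant proteins from E. coli or baculovirus-infected High Five cells.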

Lyn = biological target: T2, Lyn (Homo sapiens, UniProt P07948); assay: Kinase inhibition assay (33P transfer), Lyn; settings: Table 6, Lyn-1 kinase inhibition class
T2 construct: Kinases are expressed as either kinase domains or full length constructs; made in house
T2 sequence (P07948 whole entry, species assumed, the tested form may be a part): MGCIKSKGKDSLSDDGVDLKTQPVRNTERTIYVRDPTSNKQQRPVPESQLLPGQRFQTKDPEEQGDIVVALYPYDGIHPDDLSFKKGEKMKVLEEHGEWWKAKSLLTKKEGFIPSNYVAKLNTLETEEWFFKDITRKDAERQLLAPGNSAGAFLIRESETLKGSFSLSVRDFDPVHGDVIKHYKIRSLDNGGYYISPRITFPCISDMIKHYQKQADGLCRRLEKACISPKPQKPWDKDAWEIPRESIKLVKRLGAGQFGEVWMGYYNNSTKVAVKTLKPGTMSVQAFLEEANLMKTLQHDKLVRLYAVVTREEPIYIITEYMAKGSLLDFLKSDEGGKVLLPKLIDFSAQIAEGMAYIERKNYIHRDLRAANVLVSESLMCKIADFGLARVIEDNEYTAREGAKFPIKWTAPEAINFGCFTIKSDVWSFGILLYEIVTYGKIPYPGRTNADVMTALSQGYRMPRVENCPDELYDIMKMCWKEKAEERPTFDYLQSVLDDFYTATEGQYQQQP
Summary of the method: (§2)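 GST/His-fusion kinases, E. coli or High Five expressed, affinity purified; 33P-ATP, plate-coated poly(Glu,Tyr) 4:1 or poly(Arg,Ser) 3:1; 0.5% H3PO4 wash, scintillant, LSC.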

Src = biological target: T3, Src (Homo sapiens, UniProt P12931); assay: Kinase inhibition assay (33P transfer), Src; settings: Table 6, Src-1 kinase inhibition class
T3 construct: Kinases are expressed as either kinase domains or full length constructs; made in house
Summary of the method: as §2

Fyn = biological target: T4, Fyn (Homo sapiens, UniProt P06241); assay: Kinase inhibition assay (33P transfer), Fyn; settings: read-out: Fyn-1
T4 construct: Kinases are expressed as either kinase domains or full length constructs; made in house
T4 sequence (P06241 whole entry, species assumed, the tested form may be a part): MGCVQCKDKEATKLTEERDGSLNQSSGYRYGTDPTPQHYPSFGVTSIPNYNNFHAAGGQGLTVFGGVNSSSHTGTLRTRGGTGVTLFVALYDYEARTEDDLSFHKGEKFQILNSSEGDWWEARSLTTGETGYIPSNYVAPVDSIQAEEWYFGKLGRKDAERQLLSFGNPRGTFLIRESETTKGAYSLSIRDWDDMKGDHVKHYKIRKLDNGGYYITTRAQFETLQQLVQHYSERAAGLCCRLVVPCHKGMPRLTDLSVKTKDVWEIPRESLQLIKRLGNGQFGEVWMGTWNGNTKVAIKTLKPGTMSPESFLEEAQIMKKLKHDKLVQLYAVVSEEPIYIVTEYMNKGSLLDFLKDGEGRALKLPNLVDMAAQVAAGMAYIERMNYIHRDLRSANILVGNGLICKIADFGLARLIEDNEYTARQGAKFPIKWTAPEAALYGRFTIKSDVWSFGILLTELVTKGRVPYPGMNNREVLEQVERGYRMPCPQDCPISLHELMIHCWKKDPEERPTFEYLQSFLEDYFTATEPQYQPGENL
Summary of the method: as §2

Zap-70 = biological target: T5, Zap-70 (Homo sapiens, UniProt P43403); assay: Kinase inhibition assay (33P transfer), Zap-70; settings: read-out: Zap-1
T5 construct: Kinases are expressed as either kinase domains or full length constructs; made in house
T5 sequence (P43403 1-619): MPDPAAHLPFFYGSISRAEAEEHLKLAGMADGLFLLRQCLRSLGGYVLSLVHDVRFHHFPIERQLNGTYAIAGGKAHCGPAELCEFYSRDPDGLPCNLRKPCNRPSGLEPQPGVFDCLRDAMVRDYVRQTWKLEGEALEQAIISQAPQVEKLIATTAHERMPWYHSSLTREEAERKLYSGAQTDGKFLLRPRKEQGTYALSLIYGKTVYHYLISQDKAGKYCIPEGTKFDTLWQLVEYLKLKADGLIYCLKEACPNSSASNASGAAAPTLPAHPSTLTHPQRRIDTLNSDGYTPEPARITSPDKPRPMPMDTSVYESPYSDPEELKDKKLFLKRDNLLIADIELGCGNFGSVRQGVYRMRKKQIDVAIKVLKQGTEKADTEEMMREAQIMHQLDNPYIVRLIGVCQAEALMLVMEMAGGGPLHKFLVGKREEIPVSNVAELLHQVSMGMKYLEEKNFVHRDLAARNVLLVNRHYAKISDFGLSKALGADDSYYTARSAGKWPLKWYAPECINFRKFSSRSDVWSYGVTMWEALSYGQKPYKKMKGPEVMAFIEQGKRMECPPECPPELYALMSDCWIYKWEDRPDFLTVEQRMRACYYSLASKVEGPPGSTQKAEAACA
Summary of the method: as §1

Itk = biological target: T6, Itk (Homo sapiens, UniProt Q08881); assay: Kinase inhibition assay (33P transfer), Itk; settings: read-out: Itk-1
T6 construct: Kinases are expressed as either kinase domains or full length constructs; made in house
T6 sequence (Q08881 1-620): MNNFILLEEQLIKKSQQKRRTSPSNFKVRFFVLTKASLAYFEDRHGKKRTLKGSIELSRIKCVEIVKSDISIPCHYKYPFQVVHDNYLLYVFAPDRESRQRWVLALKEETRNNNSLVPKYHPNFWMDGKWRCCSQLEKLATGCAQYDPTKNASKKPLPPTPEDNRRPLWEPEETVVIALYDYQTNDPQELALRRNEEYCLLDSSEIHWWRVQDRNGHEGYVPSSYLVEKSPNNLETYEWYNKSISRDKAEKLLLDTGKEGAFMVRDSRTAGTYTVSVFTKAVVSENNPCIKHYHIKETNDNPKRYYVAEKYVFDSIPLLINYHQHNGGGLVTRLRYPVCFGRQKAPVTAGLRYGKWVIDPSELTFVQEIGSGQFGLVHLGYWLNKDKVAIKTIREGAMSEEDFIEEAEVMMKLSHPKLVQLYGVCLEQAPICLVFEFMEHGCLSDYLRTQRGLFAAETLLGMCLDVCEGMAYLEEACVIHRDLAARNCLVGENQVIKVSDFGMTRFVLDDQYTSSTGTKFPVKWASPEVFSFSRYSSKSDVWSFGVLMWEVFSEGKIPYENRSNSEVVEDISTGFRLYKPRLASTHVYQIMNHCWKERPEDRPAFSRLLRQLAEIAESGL
Summary of the method: as §2

EGFR = biological target: T7, EGFR (Homo sapiens, UniProt P00533); assay: Kinase inhibition assay (33P transfer), EGFR; settings: Table 2, kinase inhibition class; read-out: EGFR-1
T7 construct: Kinases are expressed as either kinase domains or full length constructs; made in house
Summary of the method: as §2

ErbB2 = biological target: T8, ErbB2 (Homo sapiens, UniProt P04626); assay: Kinase inhibition assay (33P transfer), ErbB2; settings: read-out: ErbB2-2
T8 construct: Kinases are expressed as either kinase domains or full length constructs; made in house
Summary of the method: as §2

Kdr = biological target: T9, Kdr (Homo sapiens, UniProt P35968); assay: Kinase inhibition assay (33P transfer), Kdr; settings: read-out: KDR-1
T9 construct: Kinases are expressed as either kinase domains or full length constructs; made in house
Summary of the method: as §1

Flt-1 = biological target: T10, Flt-1 (Homo sapiens, UniProt P17948); assay: Kinase inhibition assay (33P transfer), Flt-1
T10 construct: Kinases are expressed as either kinase domains or full length constructs; made in house
T10 sequence (P17948 27-1338, species assumed): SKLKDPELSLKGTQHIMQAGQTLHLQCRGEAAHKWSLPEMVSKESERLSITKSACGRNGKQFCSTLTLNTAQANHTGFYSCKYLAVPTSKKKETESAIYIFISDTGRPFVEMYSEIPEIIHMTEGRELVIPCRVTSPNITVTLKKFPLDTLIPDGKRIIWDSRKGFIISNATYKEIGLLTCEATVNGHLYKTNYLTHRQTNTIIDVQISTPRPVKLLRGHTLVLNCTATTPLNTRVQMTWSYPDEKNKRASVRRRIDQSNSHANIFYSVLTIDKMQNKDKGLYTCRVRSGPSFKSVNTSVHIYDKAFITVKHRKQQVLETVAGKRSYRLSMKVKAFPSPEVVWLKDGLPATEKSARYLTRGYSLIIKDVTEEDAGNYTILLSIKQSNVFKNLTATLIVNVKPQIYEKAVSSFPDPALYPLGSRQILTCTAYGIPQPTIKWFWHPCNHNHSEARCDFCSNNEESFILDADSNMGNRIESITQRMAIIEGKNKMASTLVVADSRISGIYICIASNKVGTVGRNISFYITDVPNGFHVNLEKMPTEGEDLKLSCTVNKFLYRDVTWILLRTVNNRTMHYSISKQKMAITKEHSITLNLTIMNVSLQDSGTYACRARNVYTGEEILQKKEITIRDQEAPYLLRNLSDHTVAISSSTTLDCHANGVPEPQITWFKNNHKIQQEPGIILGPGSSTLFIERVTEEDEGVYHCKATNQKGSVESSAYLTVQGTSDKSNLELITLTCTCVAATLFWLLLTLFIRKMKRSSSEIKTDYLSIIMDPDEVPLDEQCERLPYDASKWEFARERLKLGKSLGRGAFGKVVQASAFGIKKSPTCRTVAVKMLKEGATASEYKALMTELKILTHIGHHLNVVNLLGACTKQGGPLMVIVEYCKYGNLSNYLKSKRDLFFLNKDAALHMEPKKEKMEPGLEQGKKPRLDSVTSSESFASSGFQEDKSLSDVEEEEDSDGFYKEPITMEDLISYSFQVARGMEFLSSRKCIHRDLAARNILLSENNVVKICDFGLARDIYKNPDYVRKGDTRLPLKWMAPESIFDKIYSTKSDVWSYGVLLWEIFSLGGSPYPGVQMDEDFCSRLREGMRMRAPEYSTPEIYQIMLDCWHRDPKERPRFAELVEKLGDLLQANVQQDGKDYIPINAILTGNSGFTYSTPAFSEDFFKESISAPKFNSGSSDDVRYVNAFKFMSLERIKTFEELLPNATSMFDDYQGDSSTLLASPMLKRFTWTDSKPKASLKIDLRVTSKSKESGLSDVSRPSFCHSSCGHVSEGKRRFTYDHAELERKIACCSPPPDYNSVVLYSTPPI
Summary of the method: as §2

Tek = biological target: T11, Tek (Homo sapiens, UniProt Q02763); assay: Kinase inhibition assay (33P transfer), Tek; settings: read-out: Tek-1
T11 construct: Kinases are expressed as either kinase domains or full length constructs; made in house
T11 sequence (Q02763 23-1124, species assumed): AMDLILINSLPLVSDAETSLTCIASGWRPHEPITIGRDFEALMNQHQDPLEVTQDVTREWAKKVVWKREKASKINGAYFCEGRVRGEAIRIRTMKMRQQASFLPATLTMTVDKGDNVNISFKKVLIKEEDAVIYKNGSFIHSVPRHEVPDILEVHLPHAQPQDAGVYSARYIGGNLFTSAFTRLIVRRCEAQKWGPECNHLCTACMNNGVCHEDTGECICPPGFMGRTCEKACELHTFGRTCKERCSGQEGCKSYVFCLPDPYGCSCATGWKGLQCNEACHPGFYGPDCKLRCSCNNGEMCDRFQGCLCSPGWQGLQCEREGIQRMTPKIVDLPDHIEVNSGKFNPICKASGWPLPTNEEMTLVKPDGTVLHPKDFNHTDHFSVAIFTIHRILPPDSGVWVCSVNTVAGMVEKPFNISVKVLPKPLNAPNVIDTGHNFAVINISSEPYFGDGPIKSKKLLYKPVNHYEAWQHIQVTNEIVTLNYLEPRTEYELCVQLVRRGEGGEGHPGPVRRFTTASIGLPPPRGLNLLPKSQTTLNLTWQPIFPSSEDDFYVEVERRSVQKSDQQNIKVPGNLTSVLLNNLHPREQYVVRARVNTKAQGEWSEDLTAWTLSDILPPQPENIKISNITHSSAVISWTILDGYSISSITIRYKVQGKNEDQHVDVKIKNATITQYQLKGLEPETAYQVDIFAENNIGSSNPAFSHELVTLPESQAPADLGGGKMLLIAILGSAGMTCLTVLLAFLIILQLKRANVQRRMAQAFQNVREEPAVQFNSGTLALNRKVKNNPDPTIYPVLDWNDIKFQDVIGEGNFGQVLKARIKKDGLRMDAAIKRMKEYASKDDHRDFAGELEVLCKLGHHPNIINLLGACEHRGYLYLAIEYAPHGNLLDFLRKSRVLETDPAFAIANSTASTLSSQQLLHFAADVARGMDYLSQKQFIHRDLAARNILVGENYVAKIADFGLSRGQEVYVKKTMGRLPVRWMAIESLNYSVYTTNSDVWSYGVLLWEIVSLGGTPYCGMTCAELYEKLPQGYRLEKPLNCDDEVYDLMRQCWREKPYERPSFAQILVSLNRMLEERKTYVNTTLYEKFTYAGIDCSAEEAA
Summary of the method: as §2

c-Met = biological target: T12, c-Met (Homo sapiens, UniProt P08581); assay: Kinase inhibition assay (33P transfer), c-Met; settings: Table 2, kinase inhibition class; read-out: Met-1
T12 construct: Kinases are expressed as either kinase domains or full length constructs; made in house
Summary of the method: as §2

AKT = biological target: T13, AKT (Homo sapiens, UniProt Q9Y243); assay: Kinase inhibition assay (33P transfer), AKT; settings: Table 2, kinase inhibition class; read-out: AKT3-1
T13 construct: Kinases are expressed as either kinase domains or full length constructs; made in house
T13 sequence (Q9Y243 whole entry, the tested form may be a part): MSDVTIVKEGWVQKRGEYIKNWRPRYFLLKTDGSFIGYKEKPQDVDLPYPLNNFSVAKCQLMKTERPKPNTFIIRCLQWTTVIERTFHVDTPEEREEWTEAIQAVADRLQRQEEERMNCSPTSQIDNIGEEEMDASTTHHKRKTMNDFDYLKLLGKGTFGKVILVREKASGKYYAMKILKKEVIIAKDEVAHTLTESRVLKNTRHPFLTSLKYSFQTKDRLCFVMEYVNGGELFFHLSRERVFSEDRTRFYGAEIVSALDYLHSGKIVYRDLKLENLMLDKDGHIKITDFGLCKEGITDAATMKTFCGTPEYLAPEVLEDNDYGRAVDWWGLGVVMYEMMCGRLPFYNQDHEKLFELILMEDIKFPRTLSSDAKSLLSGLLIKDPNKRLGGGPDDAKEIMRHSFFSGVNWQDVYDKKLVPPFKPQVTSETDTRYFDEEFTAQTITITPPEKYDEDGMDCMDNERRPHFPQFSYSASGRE
Summary of the method: as §1

IGFR-1 = biological target: T14, IGFR-1 (Homo sapiens, UniProt P08069); assay: Kinase inhibition assay, IGFR-1 (Table 2); settings: Table 2, kinase inhibition class
T14 construct: Kinases are expressed as either kinase domains or full length constructs; made in house

PDGFRB = biological target: T15, PDGFRB (Homo sapiens, UniProt P09619); assay: Kinase inhibition assay (33P transfer), PDGFRB; settings: read-out: PDGFRB-1
T15 construct: Kinases are expressed as either kinase domains or full length constructs; made in house

Hck-1 = biological target: T16, Hck-1 (Homo sapiens, UniProt P08631); assay: Kinase inhibition assay (33P transfer), Hck; settings: Table 6, Hck-1 kinase inhibition class
T16 construct: Kinases are expressed as either kinase domains or full length constructs; made in house

ErbB4 = biological target: T17, ErbB4 (Homo sapiens, UniProt Q15303); assay: Kinase inhibition assay (33P transfer), ErbB4; settings: read-out: ErbB4-1
T17 construct: Kinases are expressed as either kinase domains or full length constructs; made in house

Ret-1 = biological target: T18, Ret-1 (Homo sapiens, UniProt P07949); assay: Kinase inhibition assay (33P transfer), Ret; settings: Table 6, Ret-1 kinase inhibition class
T18 construct: Kinases are expressed as either kinase domains or full length constructs; made in house
T18 sequence (P07949 29-1114): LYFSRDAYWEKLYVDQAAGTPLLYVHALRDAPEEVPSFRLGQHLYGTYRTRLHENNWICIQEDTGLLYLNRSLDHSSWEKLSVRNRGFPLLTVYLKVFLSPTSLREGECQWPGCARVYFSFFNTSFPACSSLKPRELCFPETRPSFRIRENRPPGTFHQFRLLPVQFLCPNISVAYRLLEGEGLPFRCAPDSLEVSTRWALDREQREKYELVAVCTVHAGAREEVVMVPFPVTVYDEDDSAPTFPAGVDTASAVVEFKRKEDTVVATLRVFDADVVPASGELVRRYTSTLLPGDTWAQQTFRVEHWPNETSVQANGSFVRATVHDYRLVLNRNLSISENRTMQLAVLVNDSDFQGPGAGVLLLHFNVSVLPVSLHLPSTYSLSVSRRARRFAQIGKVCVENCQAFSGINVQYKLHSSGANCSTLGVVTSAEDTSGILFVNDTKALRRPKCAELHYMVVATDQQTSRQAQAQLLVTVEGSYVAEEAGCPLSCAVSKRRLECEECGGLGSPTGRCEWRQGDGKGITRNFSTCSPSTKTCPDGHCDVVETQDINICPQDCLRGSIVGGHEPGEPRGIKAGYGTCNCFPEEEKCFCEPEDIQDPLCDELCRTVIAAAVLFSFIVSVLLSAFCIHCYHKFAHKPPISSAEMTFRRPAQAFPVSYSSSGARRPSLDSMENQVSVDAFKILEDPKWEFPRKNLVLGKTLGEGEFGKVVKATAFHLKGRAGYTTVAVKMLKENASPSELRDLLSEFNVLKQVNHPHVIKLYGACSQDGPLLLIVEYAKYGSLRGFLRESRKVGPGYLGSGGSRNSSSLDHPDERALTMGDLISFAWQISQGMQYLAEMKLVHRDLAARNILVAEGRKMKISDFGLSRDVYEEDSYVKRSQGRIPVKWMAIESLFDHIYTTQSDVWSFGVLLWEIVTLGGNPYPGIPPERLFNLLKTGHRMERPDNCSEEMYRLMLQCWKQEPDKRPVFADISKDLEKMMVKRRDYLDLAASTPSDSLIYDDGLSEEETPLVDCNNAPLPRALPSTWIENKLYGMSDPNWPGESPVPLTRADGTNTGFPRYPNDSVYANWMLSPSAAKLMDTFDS

FGFR1 = biological target: T19, FGFR1 (Homo sapiens, UniProt P11362); assay: Kinase inhibition assay (33P transfer), FGFR1; settings: read-out: FGFR1-1
T19 construct: Kinases are expressed as either kinase domains or full length constructs; made in house

Row | IC50 (Lck) | IC50 (Lyn) | IC50 (Src) | IC50 (Fyn) | IC50 (Zap-70) | IC50 (Itk) | IC50 (EGFR) | IC50 (ErbB2) | IC50 (Kdr) | IC50 (Flt-1) | IC50 (Tek) | IC50 (c-Met) | IC50 (AKT) | IC50 (IGFR-1) | IC50 (PDGFRB) | IC50 (Hck-1) | IC50 (ErbB4) | IC50 (Ret-1) | IC50 (FGFR1) | Compound
1 | 0.804 to 4.82 µM | 0.804 to 4.82 µM | > 9.04 µM | > 9.04 µM | > 9.04 µM | 4.82 to 7.03 µM | 0.804 to 4.82 µM | 4.82 to 7.03 µM | < 0.804 µM | 0.804 to 4.82 µM | 7.03 to 9.04 µM | > 9.04 µM | > 9.04 µM | > 9.04 µM | 0.804 to 4.82 µM | > 9.04 µM | 0.804 to 4.82 µM | < 0.804 µM | 0.804 to 4.82 µM | COc1cc(Nc2ncnc(-n3c(NCCc4ccccc4)nc4ccccc43)n2)cc(OC)c1OC [Compound 509]
2 | 1.03 to 6.18 µM | 9.01 to 11.6 µM | > 11.6 µM | > 11.6 µM | > 11.6 µM | 6.18 to 9.01 µM | 9.01 to 11.6 µM | 6.18 to 9.01 µM | 1.03 to 6.18 µM | 1.03 to 6.18 µM | > 11.6 µM | 6.18 to 9.01 µM | > 11.6 µM | < 1.03 µM | 6.18 to 9.01 µM | > 11.6 µM | 9.01 to 11.6 µM | 1.03 to 6.18 µM | 1.03 to 6.18 µM | Nc1nc2ccccc2n1-c1ncnc(Nc2ccc(N3CCOCC3)cc2)n1 [Compound 479]
3 | 0.798 to 4.79 µM | < 0.798 µM | > 8.97 µM | > 8.97 µM | > 8.97 µM | > 8.97 µM | > 8.97 µM | 4.79 to 6.98 µM | < 0.798 µM | 0.798 to 4.79 µM | > 8.97 µM | > 8.97 µM | > 8.97 µM | > 8.97 µM | < 0.798 µM | > 8.97 µM | 0.798 to 4.79 µM | < 0.798 µM | < 0.798 µM | COc1cc(Nc2ncnc(-n3c(NCc4ccccc4F)nc4ccccc43)n2)cc(OC)c1OC [Compound 512]
4 | 4.54 to 6.62 µM | < 0.757 µM | 6.62 to 8.51 µM | 4.54 to 6.62 µM | > 8.51 µM | 6.62 to 8.51 µM | > 8.51 µM | 4.54 to 6.62 µM | < 0.757 µM | 0.757 to 4.54 µM | 4.54 to 6.62 µM | > 8.51 µM | > 8.51 µM | 0.757 to 4.54 µM | 0.757 to 4.54 µM | 6.62 to 8.51 µM | > 8.51 µM | < 0.757 µM | 0.757 to 4.54 µM | COc1cc(Nc2ncnc(-n3c(NCc4ccc([N+](=O)[O-])cc4)nc4ccccc43)n2)cc(OC)c1OC [Compound 952]
5 | 0.746 to 4.48 µM | > 8.4 µM | > 8.4 µM | > 8.4 µM | > 8.4 µM | > 8.4 µM | 6.53 to 8.4 µM | > 8.4 µM | < 0.746 µM | > 8.4 µM | 4.48 to 6.53 µM | > 8.4 µM | > 8.4 µM | > 8.4 µM | < 0.746 µM | > 8.4 µM | > 8.4 µM | < 0.746 µM | < 0.746 µM | COc1cc(Nc2ncnc(-n3c(NCc4ccc(F)cc4Cl)nc4ccccc43)n2)cc(OC)c1OC [Compound 951]
